For one test, the target named is T1, mTOR (Homo sapiens, UniProt P42345).
T1 construct: capturing of endogenously expressed target proteins from cell extracts by a bead-immobilized capturing ligand; endogenous in cells; host or cells: HuT-78 cells (ECACC 88041901), cell lysate
As to the kind of experiment: mTOR kinobeads competition-binding assay. The settings on record: HuT-78 cell lysate, bead-immobilized capturing ligand, 2 h at 4° C., mean of multiple experiments; read-out: mean pIC50, mTOR kinobeads assay (converted). How it is done: The affinity of test compounds for mTOR was determined in the mTOR kinobeads assay. This is a competition-binding assay based on the capturing of endogenously expressed target proteins from cell extracts by a bead-immobilized capturing ligand in the presence of the test compound.
HuT-78 cells (European Collection of Authenticated Cell Cultures, 88041901) were cultured according to vendor's instructions. Frozen cell pellets were homogenized in 3× pellet volumes lysis buffer (50 mM Tris-HCl, 0.4% (v/v) Igepal-CA630, 5% glycerol, 150 mM NaCl, 1.5 mM MgCl2, 25 mM NaF, 1 mM sodium vanadate, 1 mM DTT, pH 7.5, supplemented with EDTA-free protease inhibitor tablet (Roche)). The sample was dispersed using a Dounce homogenizer, kept rotating for 30 min at 4° C., and centrifuged for 10 min at 20000 gat 4° C. The supernatant was centrifuged again for 1 h at 145 000 g. The protein concentration was determined by Bradford assay (BioRad), aliquots were snap frozen in liquid nitrogen and stored at −80° C.
The capturing matrices were generated by derivatizing N-hydroxysuccinimide (NHS) activated Sepharose 4 beads (GE Healthcare) with the functionalized ligands Compound A and Compound C at a ligand density of 5 mM. Remaining NHS-groups were blocked with ethanolamine.
For the mTOR kinobeads assay the matrices were combined in a 1:1 ratio and equilibrated in DP buffer (50 mM Tris-HCl (pH 7.5), 0.4% (v/v) Igepal-CA630, 5% (v/v) glycerol, 150 mM NaCl, 1.5 mM MgCl2, 25 mM NaF, 1 mM Na3VO4, 1 mM dithiothreitol). All steps of the mTOR kinobeads assay were performed at 4° C. or on ice. The cell lysate was diluted with DP buffer to a final concentration of 5 mg/ml and a final detergent concentration of 0.4% (v/v) Igepal-CA630. For the assay 250 μg cell lysate and 2.5 μl capturing matrix per well (final assay volume: 75 μl) were incubated in the presence of test compounds in a 384-well filter plate (MultiScreenHTS HV Filter Plate, 0.45 μm, MZHVNOW50, Merck Millipore). Each plate contained 16 positive (100 μM Compound B) and 16 negative (2% v/v DMSO) control wells. Compounds were tested in a concentration-response applying 1:3 or 1:4 dilution steps for in total 11 data points. DMSO concentration was 2% (v/v). After 2 h incubation on an overhead shaker (Roto-Shake Genie, Scientific Industries Inc.) at 4° C. the non-bound fraction was removed by washing the beads with DP buffer. Proteins retained on the beads were eluted in SDS sample buffer (200 mM Tris (pH 7.4), 250 mM Trizma Base, 4% (w/v) SDS, 20% (v/v) glycerol, 0.01% (w/v) bromophenol blue, 50 mM dithiothreitol) into a collection plate (384 well polypropylene microplate, V-shape, Greiner, 781 280). Eluates were spotted on nitrocellulose membranes (400 nl per spot) using an automated pin-tool liquid transfer (Biomek FX, Beckman). After drying, the membranes were rehydrated in 20% (v/v) ethanol and blocked by incubation with Odyssey blocking buffer (LICOR, 927-40000) for 1 h at room temperature. Blocked membranes were incubated overnight at 25° C. with Odyssey blocking buffer supplemented with a specific anti-mTOR antibody (Cell Signaling, 2972; 1:500) and 0.4% TWEEN-20. Then the membranes were washed in PBST buffer and incubated for 60 minutes at room temperature with the detection antibody (IRDye™ labelled antibody from LI-COR) diluted in Odyssey blocking buffer (LICOR 927-40000) containing 0.2% TWEEN-20. Then the membranes were washed with PBST and finally rinsed twice with PBS buffer to remove residual Tween-20. The membranes were then scanned with the Odyssey® Infrared Imaging System (LI-COR Biosciences). Fluorescence signals were recorded and analyzed according to the instructions of the manufacturer. Concentration response curves were computed with the software Activity Base. All data were normalized to the mean of 16 high (negative control) and 16 low (positive control) control wells on each plate. […]

Test [1] concerns phosphorylated Akt at serine 473 (pAKTs473) in primary human lung fibroblasts. As to the kind of experiment: High throughput phosphorylated Akt (Ser473) in vitro immunoassay (MSD). The conditions noted are these: Fibroblast, primary human lung fibroblasts (Lonza), 384-well, compound 1 h, PDGF-BB 10 ng/ml 10 min, read-out: mean pIC50, pAKTser473 high throughput immunoassay (converted). The format is cell-based. An excerpt:
Immunoassay to measure effect of test compounds on phosphorylated Akt at serine 473 (pAKTs473) in primary human lung fibroblasts (Lonza Group Ltd, Basel, Switzerland, Catalogue No. CC-2512) using the MesoScale Discovery (MSD) platform to quantify levels of total Akt and pAKTser473.
Human lung fibroblasts were routinely maintained in fibroblast basal medium supplemented with 2% foetal bovine serum (FBS), 0.1% human fibroblast growth factor (FGF)-B, 0.1% insulin, 0.1% GA-100 (Lonza Group Ltd, Basel, Switzerland, Catalogue No. CC-3132) at 37° C. in 5% CO2 according to the manufacturer's protocol.
For the assay, cells were harvested using Trypsin/EDTA, (Lonza Group Ltd, Basel, Switzerland, Catalogue No. CC-5012), at working concentration of 0.025%, resuspended to give 3×10^5 cells/ml and 50 ul/well seeded into 384-well plates (Greiner Group, Kremsmunster, Austria, Catalogue No. 781091) in media containing 0.4% FBS and incubated o/n at 37° C. in 5% CO2.
Test compounds were dissolved in 100% DMSO to give 10 mM stock solutions and serially diluted to generate an 11-point concentration response curve. Compound were further diluted by […] into 384-well V-bottom polypropylene plates (Greiner Group, Kremsmunster, Austria, Catalogue No. 781280) with media containing 0.4% FBS to give 50 µM top compound concentration in 0.5% DMSO.
Compounds were transferred to 384-well plates contacting cells (0.1% DMSO final) and incubated for 1 h at 37° C. in 5% CO2, prior to stimulation with platelet-derived growth factor (PDGF)-BB (R&D Systems, Catalogue No. 220-BB) at 10 ng/ml (final) for 10 min at RT. Cell assay plates were incubated on ice and treated with lysis buffer (Cell Signalling Technology, Catalogue No. 9806) containing protease and phosphatase inhibitors (Thermo Scientific, Catalogue No. 78444) followed by shaking for 30 min at 4° C.
MSD plates (MSD, MA6000 384-well GAR plate, Catalogue No. L21RA-2) were blocked with blocking buffer containing TBS (MSD, Cat. No. R61TX-1) with 0.5% bovine serum albumin (BSA) (Sigma Aldrich, Cat. No. A7906), 0.1% tween-20 (Sigma Aldrich, Catalogue No. P2287) and coated with rabbit-anti-human pAkt (s473) ab (Cell Signalling Technology, Catalogue No. CST #4060) at RT with shaking, followed by washing (×3) with 1×TBS wash reagent containing 0.1% Tween-20. Cell lysates (30 ul) were added and MSD plates centrifuged at 1000 rpm at 4° C. o/n.
Plates were washed with 1×TBS wash buffer (×3), prior to addition of mouse-anti-human-total Akt ab (1 mg/ml) (Upstate (Milipore), Catalogue No. 05-591) in blocking buffer and shaken at RT for 1 h. After washing with 1×TBS wash buffer (×3), plates were incubated with goat-anti-mouse SULFO-TAG detection ab (MSD, Catalogue No. R32AC-1) (1:500 in blocking buffer) for 1 h at RT. Plates were washed with 1×TBS (×3) and read buffer (2×) (MSD, Catalogue No. R92TC-1) added before detecting electrochemiluminescence (MSD Sector Imager 6000).
Data analysis was performed by determining % inhibition values for test compounds relative to the minimum (+PDGF-BB stimulation) and maximum responses (no PDGF-BB stimulation) with non-linear regression analysis to determine IC50 values for test compounds.

The subject of test [2] is type I collagen deposition in primary lung fibroblasts derived from human tissue. Briefly: High throughput type I collagen deposition (scar-in-a-jar) high content screening assay. It counts as cell-based. The settings on record: Primary lung fibroblast, 72 h, human pulmonary fibroblasts, 384-well, TGF-β 1 ng/ml 72 h, total collagen area, read-out: mean pIC50, high throughput type I collagen deposition (scar-in-a-jar) (converted). How it is done: Highthroughput, cellular type I collagen deposition was measured by adapting a published method; scar-in-a-jar (Chen et al., 2009) to primary lung fibroblasts derived from human tissue and combining with high content analysis to permit fluorescent quantification of collagen deposited in the extracellular matrix (ECM). The human biological samples were sourced ethically and their research use was in accordance with the terms of the informed consents.
Test compounds were dissolved in 100% DMSO to give 10 mM (stocks) and further diluted to give half log dilutions to generate an 11 point concentration response curve. 1 ul was transferred to 384-well plates (Greiner Group, Kremsmunster, Austria, Catalogue No Greine 781280r).
Human pulmonary fibroblasts were maintained in DMEM media (Gibco, Catalogue No 21969) supplemented with 4 mM L-glutamine (Gibco Catalogue No 25030-024) and 10% heat inactivated FBS (Gibco, Catalogue No 10099-141) at 37° C. in 10% CO2. Cells were harvested and resuspended at 4×10^6 cells/ml in a T175 cell culture flask (BD Falcom, Catalogue No: 353112) containing 50 mL of culture media. After 4 days 37° C. in 10% CO2, cells were harvested and seeded at 4000 cells per well ([…]) into 384-well plates (BD Falcon, Catalogue No 353962Greiner) in assay media (0.4% heat inactivated FBS, 4 mM L-glutamine). Plates were sealed with breathable seals (Sigma, Catalogue No. BEM-1). Assay plates were incubated for 72 h at 37° C. in 10% CO2.
Assay media was supplemented with 112.5 mg/ml Ficoll 70 (Sigma, Catalogue No F2878), 75 mg/ml Ficoll 400 (Sigma, Catalogue No F4375) and 50 µg/ml ascorbic acid (Sigma, Catalogue No A8960). 30 μL assay media were added to 1 l compound ([…] compound concentration in 1% DMSO). Diluted compounds (10 μL) were transferred to plates containing cells and incubated for 3 h at 37° C. in 10% CO2. Transforming growth factor (TGF)-β (R&D systems, Catalogue No 100-B/CF) was reconstituted to give 10 µg/mL (stock) and further diluted in assay media containing Ficoll and ascorbic acid (1 in 3333). TGF-β was added to cell plates (1 ng/ml final) and cells incubated for 72 h at 37° C. in 10% CO2.
Media was aspirated from cells and 30 µL/well 100% ice-cold methanol added and incubated at RT for 5 min to fix cells. Methanol was aspirated and cells washed with PBS (3×). To block and permeabilise, cells were incubated with PBS containing 1% BSA and 0.1% Triton X 100 for 20 min, followed by PBS wash (3×). Cells were incubated with mouse anti human type I collagen monoclonal antibody (Sigma, Catalogue No C2456) diluted 1:1000 in PBS for 24 h at 4° C. Cells were washed with PBS containing 0.1% Tween-20 (3×) and incubated with secondary alexa fluor 488 goat-anti-mouse antibody (Invitrogen, Catalogue No A11001, 1 in 500 in PBS) and Hoechst 33342 (Sigma, Catalogue No H21492), 1 in 1000 in PBS) for 1 h at RT, prior to washing with PBS containing 0.1% Tween (×4).
Type I collagen immunoreactivity was detected using the INCell 2000 Analyzer (GE Healthcare, INcell 2000) set to excitation and emission wavelengths for DAPI and FITC with laser focus and exposure adjusted to appropriate levels. Images were imported and analysed using Columbus software (Perkin Elmer) and computational algorithms to quantify “total collagen area” and “cell count”.
Data analysis was performed by determining 0/inhibition values for test compounds relative to the minimum (media only) and maximum responses (TGF-βstimulation) with non-linear regression analysis to determine IC50 values for test compounds.

With `CC[C@@H]1COCC(=O)N1c1cc(CS(C)(=O)=O)cc(-c2ccc3[nH]c(CNC)cc3n2)n1` [Example 34, (R)-5-ethyl-4-(6-(2-((methylamino)methyl)-1H-pyrrolo[3,2-b]pyridin-5-yl)-4-((methylsulfonyl)methyl)pyridin-2-yl)morpholin-3-one], the IC50 at mTOR is 1260 nM; in test [1], 7940 nM.

Consider `CC[C@H]1COCCN1c1cc(CS(C)(=O)=O)cc(-c2ccc3[nH]c(C)cc3n2)n1` [Example 22, (S)-3-ethyl-4-(6-(2-methyl-1H-pyrrolo[3,2-b]pyridin-5-yl)-4-((methylsulfonyl)methyl)pyridin-2-yl)morpholine], for which the IC50 in test [1] is 2.51 to 25.1 nM; in test [2], 20 to 3160 nM.

Regarding `CC[C@H]1COCCN1c1cc(C2(S(C)(=O)=O)CCOCC2)cc(-c2ccc3[nH]c(C)cc3n2)n1` [Example 21, (S)-3-ethyl-4-(6-(2-methyl-1H-pyrrolo[3,2-b]pyridin-5-yl)-4-(4-(methylsulfonyl)tetra-hydro-2H-pyran-4-yl)pyridin-2-yl)morpholine], the values for the IC50 in test [1] and in test [2] were 2.51 to 25.1 nM and 20 to 3160 nM, respectively.

The values above are taken from US20220306623A1, “PYRIDYL OR PYRIMIDYL MTOR KINASE INHIBITORS” (GLAXOSMITHKLINE INTELLECTUAL PROPERTY DEVELOPMENT LIMITED, priority 2019, published 2022).
